Assay [1] deals with T1, YueD; carbonyl reductase from Bacillus sp. ECU0013.
T1 construct: pET28a, His-tag purified from E. coli BL21(DE3); NADPH-dependent
Kind of assay: kinetics of asymmetric ketone reduction. The settings on record: co-substrate NADPH; full assay conditions in supplement Table S3. It is filed as biochemical. From the text: kinetics of asymmetric ketone reduction on YueD; carbonyl reductase from Bacillus sp.

The subject of assay [2] is T2, ScCR; carbonyl reductase from Streptomyces coelicolor.
T2 construct: pET28a, His-tag purified from E. coli BL21(DE3); NADH-dependent
The assay is described as follows: kinetics of asymmetric ketone reduction. Particulars: co-substrate NADH; full assay conditions in supplement Table S3. It is filed as biochemical.

For the compound `CC(=O)Nc1coc(C(C)=O)c1` [3A5AF, 3-Acetamido-5-acetylfuran], the Km is 0.5 mM in assay [1] and 6.3 mM in assay [2].

By Km is commonly meant the substrate concentration at which the rate is half of its maximum.

Source of the values: article PMC10992857, “Chemoenzymatic access to enantiopure N-containing furfuryl alcohol from chitin-derived N-acetyl-D-glucosamine” (Bioresources and Bioprocessing, 2021).
